Results as given in patent US12077503B2, “Substituted cyclic amides and their use as herbicides” (FMC CORPORATION, priority 2015, dated 2024).

Tests used:
Assay type in all cases: in vivo
Kochia (Kochia scoparia) [1] = experiment: Test A preemergence; conditions: Preemergence; for Plant response rating, Kochia: 125 g ai/ha, visual injury after approximately 10 d, 0 to 100 scale where 0 is no effect and 100 is complete control; for Kochia plant response rating (0 to 100 scale, 0 is no effect, 100 is complete control): 500 g ai/ha, visual injury approx. 10 d
Text: (§1) Seeds of plant species selected from barnyardgrass (Echinochloa crus-galli), Kochia (Kochia scoparia), ragweed (common ragweed, Ambrosia elatior), ryegrass, Italian (Italian ryegrass, Lolium multiflorum), crabgrass, large (Digitaria sanguinalis), giant foxtail (Setaria faberii), green foxtail (Setaria viridis), morningglory (Ipomoea spp.), pigweed (Amaranthus retroflexus), velvetleaf (Abutilon theophrasti), wheat (Triticum aestivum), and corn (Zea mays) were planted into a blend of loam soil and sand and treated preemergence with a directed soil spray using test chemicals formulated in anon-phytotoxic solvent mixture which included a surfactant.
(§2) At the same time, plants selected from these crop and weed species and also blackgrass (Alopecurus myosuroides), and Galium (catchweed bedstraw, Galium aparine) were planted in pots containing the same blend of loam soil and sand and treated with postemergence applications of test chemicals formulated in the same manner. Plants ranged in height from 2 to 10 cm and were in the one- to two-leaf stage for the postemergence treatment. Treated plants and untreated controls were maintained in a greenhouse for approximately 10 d, after which time all treated plants were compared to untreated controls and visually evaluated for injury. Plant response ratings, summarized in Table A, are based on a 0 to 100 scale where 0 is no effect and 100 is complete control. A dash (-) response means no test result.

[2] = tested on: barnyardgrass (Echinochloa crus-galli); experiment: Test A preemergence; conditions: Preemergence; for Plant response rating, Barnyardgrass: 125 g ai/ha, visual injury after approximately 10 d, 0 to 100 scale where 0 is no effect and 100 is complete control; for Barnyardgrass plant response rating (0 to 100 scale, 0 is no effect, 100 is complete control): 500 g ai/ha, visual injury approx. 10 d
Text: as §1, §2

[3] = tested on: giant foxtail (Setaria faberii); experiment: Test A preemergence; conditions: Preemergence; for Plant response rating, Foxtail, Giant: 125 g ai/ha, visual injury after approximately 10 d, 0 to 100 scale where 0 is no effect and 100 is complete control; for Foxtail, Giant plant response rating (0 to 100 scale, 0 is no effect, 100 is complete control): 500 g ai/ha, visual injury approx. 10 d
Text: as §1, §2

[4] = tested on: pigweed (Amaranthus retroflexus); experiment: Test A preemergence; conditions: Preemergence; for Plant response rating, Pigweed: 125 g ai/ha, visual injury after approximately 10 d, 0 to 100 scale where 0 is no effect and 100 is complete control; for Pigweed plant response rating (0 to 100 scale, 0 is no effect, 100 is complete control): 500 g ai/ha, visual injury approx. 10 d
Text: as §1, §2

[5] = tested on: ragweed (common ragweed, Ambrosia elatior); experiment: Test A preemergence; conditions: Preemergence; for Plant response rating, Ragweed: 125 g ai/ha, visual injury after approximately 10 d, 0 to 100 scale where 0 is no effect and 100 is complete control; for Ragweed plant response rating (0 to 100 scale, 0 is no effect, 100 is complete control): 500 g ai/ha, visual injury approx. 10 d
Text: as §1, §2

[6] = tested on: ryegrass, Italian (Italian ryegrass, Lolium multiflorum); experiment: Test A preemergence; conditions: Preemergence; for Plant response rating, Ryegrass, Italian: 125 g ai/ha, visual injury after approximately 10 d, 0 to 100 scale where 0 is no effect and 100 is complete control; for Ryegrass, Italian plant response rating (0 to 100 scale, 0 is no effect, 100 is complete control): 500 g ai/ha, visual injury approx. 10 d
Text: as §1, §2

[7] = tested on: Galium (catchweed bedstraw, Galium aparine); experiment: Test A postemergence; conditions: for Galium plant response rating: 125 g ai/ha, postemergence, visual injury rating on 0 to 100 scale (0 no effect, 100 complete control), approx. 10 d; for Plant response rating, Galium: Postemergence, 500 g ai/ha, 0 to 100 scale where 0 is no effect and 100 is complete control
Text: as §1, §2

Kochia (Kochia scoparia) [8] = experiment: Test A postemergence; conditions: for Kochia plant response rating: 125 g ai/ha, postemergence, visual injury rating on 0 to 100 scale (0 no effect, 100 complete control), approx. 10 d; for Plant response rating, Kochia: Postemergence, 500 g ai/ha, 0 to 100 scale where 0 is no effect and 100 is complete control
Text: as §1, §2

[9] = tested on: barnyardgrass (Echinochloa crus-galli); experiment: Test A postemergence; conditions: for Barnyardgrass plant response rating: 125 g ai/ha, postemergence, visual injury rating on 0 to 100 scale (0 no effect, 100 complete control), approx. 10 d; for Plant response rating, Barnyardgrass: Postemergence, 500 g ai/ha, 0 to 100 scale where 0 is no effect and 100 is complete control
Text: as §1, §2

[10] = tested on: blackgrass (Alopecurus myosuroides); experiment: Test A postemergence; conditions: for Blackgrass plant response rating: 125 g ai/ha, postemergence, visual injury rating on 0 to 100 scale (0 no effect, 100 complete control), approx. 10 d; for Plant response rating, Blackgrass: Postemergence, 500 g ai/ha, 0 to 100 scale where 0 is no effect and 100 is complete control
Text: as §1, §2

corn (Zea mays) = experiment: Test A postemergence; conditions: for Corn plant response rating: 125 g ai/ha, postemergence, visual injury rating on 0 to 100 scale (0 no effect, 100 complete control), approx. 10 d; for Plant response rating, Corn: Postemergence, 500 g ai/ha, 0 to 100 scale where 0 is no effect and 100 is complete control
Text: as §1, §2

[11] = tested on: giant foxtail (Setaria faberii); experiment: Test A postemergence; conditions: for Foxtail, Giant plant response rating: 125 g ai/ha, postemergence, visual injury rating on 0 to 100 scale (0 no effect, 100 complete control), approx. 10 d; for Plant response rating, Foxtail, Giant: Postemergence, 500 g ai/ha, 0 to 100 scale where 0 is no effect and 100 is complete control
Text: as §1, §2

[12] = tested on: pigweed (Amaranthus retroflexus); experiment: Test A postemergence; conditions: for Pigweed plant response rating: 125 g ai/ha, postemergence, visual injury rating on 0 to 100 scale (0 no effect, 100 complete control), approx. 10 d; for Plant response rating, Pigweed: Postemergence, 500 g ai/ha, 0 to 100 scale where 0 is no effect and 100 is complete control
Text: as §1, §2

[13] = tested on: ragweed (common ragweed, Ambrosia elatior); experiment: Test A postemergence; conditions: for Ragweed plant response rating: 125 g ai/ha, postemergence, visual injury rating on 0 to 100 scale (0 no effect, 100 complete control), approx. 10 d; for Plant response rating, Ragweed: Postemergence, 500 g ai/ha, 0 to 100 scale where 0 is no effect and 100 is complete control
Text: as §1, §2

[14] = tested on: ryegrass, Italian (Italian ryegrass, Lolium multiflorum); experiment: Test A postemergence; conditions: for Ryegrass, Italian plant response rating: 125 g ai/ha, postemergence, visual injury rating on 0 to 100 scale (0 no effect, 100 complete control), approx. 10 d; for Plant response rating, Ryegrass, Italian: Postemergence, 500 g ai/ha, 0 to 100 scale where 0 is no effect and 100 is complete control
Text: as §1, §2

[15] = tested on: wheat (Triticum aestivum); experiment: Test A postemergence; conditions: for Wheat plant response rating: 125 g ai/ha, postemergence, visual injury rating on 0 to 100 scale (0 no effect, 100 complete control), approx. 10 d; for Plant response rating, Wheat: Postemergence, 500 g ai/ha, 0 to 100 scale where 0 is no effect and 100 is complete control
Text: as §1, §2

[16] = tested on: barnyardgrass (Echinochloa crus-galli); experiment: Test B flooded paddy test; conditions: Flood, 250 g ai/ha; 0 to 100 scale where 0 is no effect and 100 is complete control; 13 to 15 d
Procedure: (§3) Plant species in the flooded paddy test selected from rice (Oryra sativa), sedge, umbrella (small-flower umbrella sedge, Cyperus difformis), ducksalad (Heteranthera limosa), and barnyardgrass (Echinochloa crus-galli) were grown to the 2-leaf stage for testing. At time of treatment, test pots were flooded to 3 cm above the soil surface, treated by application of test compounds directly to the paddy water, and then maintained at that water depth for the duration of the test. Treated plants and controls were maintained in a greenhouse for 13 to 15 d, after which time all species were compared to controls and visually evaluated. Plant response ratings, summarized in Table B, are based on a scale of 0 to 100 where 0 is no effect and 100 is complete control. A dash (-) response means no test result.

[17] = tested on: ducksalad (Heteranthera limosa); experiment: Test B flooded paddy test; conditions: Flood, 250 g ai/ha; 0 to 100 scale where 0 is no effect and 100 is complete control; 13 to 15 d
Procedure: as §3

rice (Oryra sativa) = experiment: Test B flooded paddy test; conditions: Flood, 250 g ai/ha; 0 to 100 scale where 0 is no effect and 100 is complete control; 13 to 15 d
Procedure: as §3

[18] = tested on: sedge, umbrella (small-flower umbrella sedge, Cyperus difformis); experiment: Test B flooded paddy test; conditions: Flood, 250 g ai/ha; 0 to 100 scale where 0 is no effect and 100 is complete control; 13 to 15 d
Procedure: as §3

Row | SMILES | Plant response rating, Kochia (Kochia (Kochia scoparia) [1]) | Kochia plant response rating (0 to 100 scale, 0 is no effect, 100 is complete control) (Kochia (Kochia scoparia) [1]) | Plant response rating, Barnyardgrass [2] | Barnyardgrass plant response rating (0 to 100 scale, 0 is no effect, 100 is complete control) [2] | Plant response rating, Foxtail, Giant [3] | Foxtail, Giant plant response rating (0 to 100 scale, 0 is no effect, 100 is complete control) [3] | Plant response rating, Pigweed [4] | Pigweed plant response rating (0 to 100 scale, 0 is no effect, 100 is complete control) [4] | Plant response rating, Ragweed [5] | Ragweed plant response rating (0 to 100 scale, 0 is no effect, 100 is complete control) [5] | Plant response rating, Ryegrass, Italian [6] | Ryegrass, Italian plant response rating (0 to 100 scale, 0 is no effect, 100 is complete control) [6] | Galium plant response rating [7] | Plant response rating, Galium [7] | Kochia plant response rating (Kochia (Kochia scoparia) [8]) | Plant response rating, Kochia (Kochia (Kochia scoparia) [8]) | Barnyardgrass plant response rating [9] | Plant response rating, Barnyardgrass [9] | Blackgrass plant response rating [10] | Plant response rating, Blackgrass [10] | further results
1 | O=C1NCC(c2ccc(C3CC3)cc2)C1C(=O)Nc1cccc(F)c1F (racemic) [Compound 501] | 0 | 30 | 80 | 90 | 80 | 90 | 0 | 20 | 0 | 50 | 0 | 0 | 0 | 0 | 0 | 0 | 50 | 80 | 30 | 40 | Corn plant response rating (corn (Zea mays)): 0; Plant response rating, Corn (corn (Zea mays)): 30; Foxtail, Giant plant response rating [11]: 70; Plant response rating, Foxtail, Giant [11]: 80; Pigweed plant response rating [12]: 0; Plant response rating, Pigweed [12]: 0; Ragweed plant response rating [13]: 0; Plant response rating, Ragweed [13]: 0; Ryegrass, Italian plant response rating [14]: 0; Plant response rating, Ryegrass, Italian [14]: 20; Wheat plant response rating [15]: 0; Plant response rating, Wheat [15]: 0; Plant response rating, Barnyardgrass [16]: 20; Plant response rating, Ducksalad [17]: 85; Plant response rating, Rice (rice (Oryra sativa)): 0; Plant response rating, Sedge, Umbrella [18]: 0
2 | Cc1ccc(C2CNC(=O)C2C(=O)Nc2ccc(F)cc2F)c(F)c1 (racemic) [Compound 508] | 0 | 0 | 70 | 90 | 40 | 70 | 0 | 0 | 0 | 0 | 0 | 0 | 0 | 20 | 0 | 20 | 70 | 90 | 0 | 0 | Corn plant response rating (corn (Zea mays)): 0; Plant response rating, Corn (corn (Zea mays)): 20; Foxtail, Giant plant response rating [11]: 0; Plant response rating, Foxtail, Giant [11]: 40; Pigweed plant response rating [12]: 0; Plant response rating, Pigweed [12]: 20; Ragweed plant response rating [13]: 0; Plant response rating, Ragweed [13]: 0; Ryegrass, Italian plant response rating [14]: 0; Plant response rating, Ryegrass, Italian [14]: 0; Wheat plant response rating [15]: 0; Plant response rating, Wheat [15]: 20; Plant response rating, Barnyardgrass [16]: 0; Plant response rating, Ducksalad [17]: 50; Plant response rating, Rice (rice (Oryra sativa)): 0; Plant response rating, Sedge, Umbrella [18]: 0
3 | O=C1NCC(c2c(F)cccc2F)C1C(=O)Nc1cccc(F)c1F (racemic) [Compound 516] | 0 | 0 | 40 | 80 | 70 | 90 | 0 | 0 | 0 | 0 | 0 | 0 | 0 | 0 | 0 | 0 | 0 | 70 | 0 | 0 | Corn plant response rating (corn (Zea mays)): 0; Plant response rating, Corn (corn (Zea mays)): 0; Foxtail, Giant plant response rating [11]: 0; Plant response rating, Foxtail, Giant [11]: 70; Pigweed plant response rating [12]: 0; Plant response rating, Pigweed [12]: 0; Ragweed plant response rating [13]: 0; Plant response rating, Ragweed [13]: 0; Ryegrass, Italian plant response rating [14]: 0; Plant response rating, Ryegrass, Italian [14]: 0; Wheat plant response rating [15]: 0; Plant response rating, Wheat [15]: 0; Plant response rating, Barnyardgrass [16]: 0; Plant response rating, Ducksalad [17]: 0; Plant response rating, Rice (rice (Oryra sativa)): 0; Plant response rating, Sedge, Umbrella [18]: 0
4 | O=C1NCC(c2c(F)cccc2F)C1C(=O)Nc1ccc(F)cc1F (racemic) [Compound 517] | 0 | 0 | 0 | 0 | 0 | 30 | 0 | 0 | 0 | 0 | 0 | 0 | 0 | 0 | 0 | 0 | 20 | 30 | 0 | 0 | Corn plant response rating (corn (Zea mays)): 0; Plant response rating, Corn (corn (Zea mays)): 0; Foxtail, Giant plant response rating [11]: 0; Plant response rating, Foxtail, Giant [11]: 0; Pigweed plant response rating [12]: 0; Plant response rating, Pigweed [12]: 0; Ragweed plant response rating [13]: 0; Plant response rating, Ragweed [13]: 0; Ryegrass, Italian plant response rating [14]: 0; Plant response rating, Ryegrass, Italian [14]: 0; Wheat plant response rating [15]: 0; Plant response rating, Wheat [15]: 0; Plant response rating, Barnyardgrass [16]: 0; Plant response rating, Ducksalad [17]: 0; Plant response rating, Rice (rice (Oryra sativa)): 0; Plant response rating, Sedge, Umbrella [18]: 0
